From PubChem BioAssay (NCI)
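The compound was tested at five concentrations on cells cultured in 96-well plates, with a 48-hour exposure period. At the TGI there is no net growth.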

Key:
Assay in all cases: inhibition of tumour cell growth, NCI panel, 48 h
[1] = test system: DMS 273 small cell lung
[2] = test system: U251 CNS
[3] = test system: NCI-H23 lung
[4] = test system: OVCAR-5 ovarian
[5] = test system: HOP-62 NSCLC
[6] = test system: HL-60(TB) leukemia
[7] = test system: M14 melanoma
[8] = test system: SW-620 colon
[9] = test system: UACC-257 melanoma
[10] = test system: SF-295 CNS
[11] = test system: UO-31 renal
[12] = test system: LXFL 529 NSCLC
[13] = test system: SK-OV-3 ovarian
[14] = test system: HCC-2998 colon
[15] = test system: NCI-H460 lung
[16] = test system: SNB-19 CNS
[17] = test system: A498 renal
[18] = test system: HCT-116 colon
[19] = test system: DLD-1 colon
[20] = test system: HOP-18 NSCLC
[21] = test system: RXF-631 renal
[22] = test system: MALME-3M melanoma
[23] = test system: OVCAR-4 ovarian
[24] = test system: TK-10 renal
[25] = test system: SN12C renal
[26] = test system: RPMI-8226 leukemia
[27] = test system: KM12 colon
[28] = test system: NCI-H522 lung
[29] = test system: SF-539 CNS
[30] = test system: OVCAR-8 ovarian
[31] = test system: LOX IMVI melanoma
[32] = test system: SF-268 CNS
[33] = test system: KM20L2 colon
[34] = test system: IGROV1 ovarian
[35] = test system: DMS 114 small cell lung
[36] = test system: HCT-15 colon
[37] = test system: SNB-78 CNS
[38] = test system: A549 NSCLC
[39] = test system: CCRF-CEM leukemia
[40] = test system: SK-MEL-5 melanoma
[41] = test system: NCI-H226 lung
[42] = test system: EKVX NSCLC
[43] = test system: HOP-92 NSCLC
[44] = test system: HT29 colon
[45] = test system: K-562 leukemia
[46] = test system: MOLT-4 leukemia
[47] = test system: CAKI-1 renal
[48] = test system: SNB-75 CNS
[49] = test system: RXF 393 renal
[50] = test system: COLO 205 colon
[51] = test system: SR leukemia
[52] = test system: OVCAR-3 ovarian
[53] = test system: M19-MEL melanoma
[54] = test system: SK-MEL-28 melanoma
[55] = test system: XF 498 CNS
[56] = test system: UACC-62 melanoma
[57] = test system: 786-0 renal
[58] = test system: ACHN renal
[59] = test system: SK-MEL-2 melanoma

Molecule `CCOC(=O)C1C=C2O[C@@H]3OC4(CCCCC4)O[C@@H]3C2[C@H]2C(=O)C=CC(=O)[C@@]12C(=O)OC` (some centres undefined) has a TGI [1] of 22.9 µM, a TGI [2] of 21.5 µM and a TGI [3] of 45.2 µM. It also gave a TGI [4] of 31.7 µM, a TGI [5] of 36.3 µM and a TGI [6] of 5.83 µM. For the same molecule, the TGI [7] was 30.1 µM, the TGI [8] was 28.6 µM and the TGI [9] was 30.8 µM. The TGI [10] was 32.6 µM, the TGI [11] was 29.9 µM and the TGI [12] was 22.9 µM. The TGI [13] was 32.2 µM, the TGI [14] was 28 µM and the TGI [15] was 33.4 µM. The TGI [16] was 22.9 µM, the TGI [17] was 32.6 µM and the TGI [18] was 19.1 µM. For the same molecule, the TGI [19] was 35.1 µM, the TGI [20] was 32.4 µM and the TGI [21] was 51.8 µM. It also gave a TGI [22] of 31.2 µM, a TGI [23] of 23.3 µM and a TGI [24] of 26.5 µM. The TGI [25] was 31.5 µM, the TGI [26] was 8.06 µM and the TGI [27] was 27.8 µM. The TGI [28] was 14.5 µM, the TGI [29] was 6.16 µM and the TGI [30] was 13.9 µM. For the same molecule, the TGI [31] was 32.9 µM, the TGI [32] was 29.6 µM and the TGI [33] was 30.6 µM. For the same molecule, the TGI [34] was 27.6 µM, the TGI [35] was 9.68 µM and the TGI [36] was 28.8 µM. For the same molecule, the TGI [37] was 19.3 µM, the TGI [38] was 33.1 µM and the TGI [39] was 9.94 µM. The TGI [40] was 33.9 µM, the TGI [41] was 36.4 µM and the TGI [42] was 36.1 µM. The TGI [43] was 26.2 µM, the TGI [44] was 19.4 µM and the TGI [45] was 34.2 µM. For the same molecule, the TGI [46] was 8.71 µM, the TGI [47] was 31.3 µM and the TGI [48] was 35.4 µM. The TGI [49] was 3.59 µM, the TGI [50] was 22.4 µM and the TGI [51] was 6.71 µM. It also gave a TGI [52] of 22.1 µM, a TGI [53] of 31.4 µM and a TGI [54] of 30 µM. The TGI [55] was 12.8 µM, the TGI [56] was 30.9 µM and the TGI [57] was 18.7 µM. For the same molecule, the TGI [58] was 32.2 µM and the TGI [59] was 30.6 µM.
